Results published in patent US10179771B2 (GALAPAGOS NV, priority 2014, dated 2019).

Experiments:
[1] = target: T1, Recombinant human JAK1 catalytic domain (Homo sapiens, UniProt P23458); test: JAK1 inhibition assay (polyGT substrate / Ulight-JAK1 peptide assay); assay type: biochemical; conditions: Comparative Compounds (Table VI)
T1 construct: Recombinant human JAK1 (catalytic domain, amino acids 866-1154; catalog number PV4774); purchased Invitrogen PV4774
Experimental: Recombinant human JAK1 catalytic domain (amino acids 850-1154; catalog number 08-144) was purchased from Carna Biosciences. 10 ng of JAK1 is incubated with 12.5 μg polyGT substrate (Sigma catalog number P0275) in kinase reaction buffer (15 mM Tris-HCl pH 7.5, 1 mM DTT, 0.01% Tween-20, 10 mM MgCl2, 2 μM non-radioactive ATP, 0.25 ρCi ^33P-gamma-ATP (GE Healthcare, catalog number AH9968) final concentrations) with or without 5 μL containing test compound or vehicle (DMSO, 1% final concentration), in a total volume of 25 μL, in a polypropylene 96-well plate (Greiner, V-bottom). After 45 min at 30° C., reactions are stopped by adding of 25 μL/well of 150 mM phosphoric acid. All of the terminated kinase reaction is transferred to prewashed (75 mM phosphoric acid) 96 well filter plates (Perkin Elmer catalog number 6005177) using a cell harvester (Perkin Elmer). Plates are washed 6 times with 300 μL per well of a 75 mM phosphoric acid solution and the bottom of the plates is sealed. 40 μL/well of Microscint-20 is added, the top of the plates is sealed and readout is performed using the Topcount (Perkin Elmer). Kinase activity is calculated by subtracting counts per min (cpm) obtained in the presence of a positive control inhibitor (10 μM staurosporine) from cpm obtained in the presence of vehicle. The ability of a test compound to inhibit this activity is determined as:
(§1) [formula] • RFU test compound=RFU determined for sample with test compound present • RFU control=RFU determined for sample with positive control inhibitor • RFU vehicle=RFU determined in the presence of vehicle
(§2) Dose dilution series are prepared for the compounds enabling the testing of dose-response effects in the JAK1 assay and the calculation of the IC50 for each compound. Each compound is routinely tested at concentration of 20 μM followed by a 1/3 serial dilution, 8 points (20 μM-6.67 μM-2.22 μM-740 nM-247 nM-82 nM-27 nM-9 nM) in a final concentration of 1% DMSO. When potency of compound series increased, more dilutions are prepared and/or the top concentration was lowered (e.g. 5 μM, 1 μM).
Recombinant human JAK1 (catalytic domain, amino acids 866-1154; catalog number PV4774) was purchased from Invitrogen. 1 ng of JAK1 was incubated with 20 nM Ulight-JAK1 (tyr1023) peptide (Perkin Elmer catalog number TRF0121) in kinase reaction buffer (25 mM MOPS pH6.8, 0.01% Brij-35, 5 mM MgCl2, 2 mM DTT, 7 μM ATP) with or without 4 μL containing test compound or vehicle (DMSO, 1% final concentration), in a total volume of 20 μL, in a white 384 Opti plate (Perkin Elmer, catalog number 6007290). After 60 min at room temperature, reactions were stopped by adding 20 μL/well of detection mixture (1× detection buffer (Perkin Elmer, catalog number CR97-100C), 0.5 nM Europium-anti-phosphotyrosine (PT66) (Perkin Elmer, catalog number AD0068), 10 mM EDTA). Readout is performed using the Envision with excitation at 320 nm and measuring emission at 615 nm (Perkin Elmer). Kinase activity was calculated by subtracting relative fluorescence units (RFU) obtained in the presence of a positive control inhibitor (10 μM staurosporine) from RFU obtained in the presence of vehicle. The ability of a test compound to inhibit this activity was determined as: Percentage inhibition=((RFU determined for sample with test compound present−RFU determined for sample with positive control inhibitor) divided by (RFU determined in the presence of vehicle−RFU determined for sample with positive control inhibitor))*100.
(§3) Dose dilution series were prepared for the compounds enabling the testing of dose-response effects in the JAK1 assay and the calculation of the IC50 for the compound. Each compound is routinely tested at concentration of 20 μM followed by a 1/5 serial dilution, 10 points in a final concentration of 1% DMSO. When potency of compound series increases, more dilutions are prepared and/or the top concentration are lowered (e.g. 5 μM, 1 μM). […]

[2] = target: T2, Recombinant human JAK2 catalytic domain (Homo sapiens, UniProt O60674); test: JAK2 inhibition assay (polyGT substrate / Ulight-JAK1 peptide assay); assay type: biochemical; conditions: Comparative Compounds (Table VIII)
T2 construct: Recombinant human JAK2 catalytic domain (amino acids 808-1132; catalog number PV4210); GST; purchased Invitrogen PV4210
T2 sequence (O60674 808-1132): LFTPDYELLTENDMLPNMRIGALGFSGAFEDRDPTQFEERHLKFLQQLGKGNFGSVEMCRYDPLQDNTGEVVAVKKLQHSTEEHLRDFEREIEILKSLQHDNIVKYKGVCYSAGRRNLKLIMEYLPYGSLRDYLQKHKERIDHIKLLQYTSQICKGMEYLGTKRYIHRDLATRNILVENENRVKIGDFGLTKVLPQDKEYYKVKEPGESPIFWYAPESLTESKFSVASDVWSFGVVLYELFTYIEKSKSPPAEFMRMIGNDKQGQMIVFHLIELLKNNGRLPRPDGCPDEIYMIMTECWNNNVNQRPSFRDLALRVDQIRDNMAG
Experimental: Recombinant human JAK2 catalytic domain (amino acids 808-1132; catalog number PV4210) was purchased from Invitrogen. 0.025 mU of JAK2 is incubated with […] polyGT substrate (Sigma catalog number P0275) in kinase reaction buffer (5 mM MOPS pH 7.5, 9 mM MgAc, 0.3 mM EDTA, 0.06% Brij and 0.6 mM DTT, 1 μM non-radioactive ATP, 0.25 μCi ^33P-gamma-ATP (GE Healthcare, catalog number AH9968) final concentrations) with or without 5 μL containing test compound or vehicle (DMSO, 1% final concentration), in a total volume of 25 μL, in a polypropylene 96-well plate (Greiner, V-bottom). After 90 min at 30° C., reactions are stopped by adding of 25 μL/well of 150 mM phosphoric acid. All of the terminated kinase reaction is transferred to prewashed (75 mM phosphoric acid) 96 well filter plates (Perkin Elmer catalog number 6005177) using a cell harvester (Perkin Elmer). Plates are washed 6 times with 300 μL per well of a 75 mM phosphoric acid solution and the bottom of the plates is sealed. 40 μL/well of Microscint-20 is added, the top of the plates is sealed and readout is performed using the Topcount (Perkin Elmer). Kinase activity is calculated by subtracting counts per min (cpm) obtained in the presence of a positive control inhibitor (10 μM staurosporine) from cpm obtained in the presence of vehicle. The ability of a test compound to inhibit this activity is determined as:
as §1
as §2, with “JAK2” for “JAK1”, “is” for “was”
Recombinant human JAK2 (catalytic domain, amino acids 866-1154; catalog number PV4210) was purchased from Invitrogen. 0.0125 mU of JAK2 was incubated with 25 nM Ulight-JAK1 (tyr1023) peptide (Perkin Elmer catalog number TRF0121) in kinase reaction buffer (25 mM HEPES pH7.0, 0.01% Triton X-100, 7.5 mM MgCl2, 2 mM DTT, 7.5 μM ATP) with or without 4 μL containing test compound or vehicle (DMSO, 1% final concentration), in a total volume of 20 μL, in a white 384 Opti plate (Perkin Elmer, catalog number 6007290). After 60 min at room temperature, reactions were stopped by adding 20 μL/well of detection mixture (1× detection buffer (Perkin Elmer, catalog number CR97-100C), 0.5 nM Europium-anti-phosphotyrosine (PT66) (Perkin Elmer, catalog number AD0068), 10 mM EDTA). Readout is performed using the Envision with excitation at 320 nm and measuring emission at 615 nm (Perkin Elmer). Kinase activity was calculated by subtracting relative fluorescence units (RFU) obtained in the presence of a positive control inhibitor (10 μM staurosporine) from RFU obtained in the presence of vehicle. The ability of a test compound to inhibit this activity was determined as: Percentage inhibition=((RFU determined for sample with test compound present−RFU determined for sample with positive control inhibitor) divided by (RFU determined in the presence of vehicle−RFU determined for sample with positive control inhibitor))*100.
as §3, with “series are” for “series were”, “for compound” for “for the compounds”, “the JAK2” for “the JAK1”

T1 sequence (P23458 866-1154): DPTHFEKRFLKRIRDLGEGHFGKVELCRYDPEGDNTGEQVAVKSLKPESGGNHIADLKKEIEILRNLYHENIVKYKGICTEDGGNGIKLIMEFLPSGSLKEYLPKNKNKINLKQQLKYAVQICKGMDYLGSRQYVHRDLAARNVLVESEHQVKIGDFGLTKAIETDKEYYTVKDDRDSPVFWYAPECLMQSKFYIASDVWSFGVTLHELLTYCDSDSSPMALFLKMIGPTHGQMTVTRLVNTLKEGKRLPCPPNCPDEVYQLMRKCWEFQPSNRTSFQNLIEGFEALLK

Row | IC50 [1] [nM] | IC50 [2] [nM] | SMILES
1 | > 500 | > 500 | Cn1cnc2ccc(Nc3ccc4c(c3)OCCO4)cc21 [B, reference compound]
2 | > 500 | > 500 | Cn1cnc2ccc(Nc3ccc(CC#N)cc3)cc21 [A, 2-[4-[(3-methylbenzimidazol-5-yl)amino]phenyl]acetonitrile, reference compound]
